{
  "source": "paper PMC11571215",
  "about": "“Optimization of Antiproliferative Properties of Triimine Copper(II) Complexes” (Journal of Medicinal Chemistry, 2024)",
  "key": {"HCT116-DoxR 3D spheroids": {"system": "HCT116-DoxR 3D spheroids", "assay": "MTS cell viability assay in 3D tumor spheroids", "type": "cell-based, human", "settings": "spheroids with 6 days of growth, 48 h of exposure", "description": "The research on tumor microenvironment (TME) has recently been gaining attention due to its important role in tumor growth, progression, and response to therapy.[57]−[60] Because of this, the development of 3D cancer models that mimic the interactions in the TME and the tumor structure and complexity is of great relevance to cancer research and drug development. […] The MTS assay was performed inHCT116-DoxR 3D spheroids with 6 days of growth (Figure S15 in ESI), followed by exposure to the complexes for 48 h. The results of cell viabilities and respective relative IC50 values calculated are provided in Figure 4 and Table 5, respectively.\nHCT116-DoxR cells were seeded at 5 × 10^4 cells/mL in super low Attachment 96-well plates (NunclonSphera U-Shaped-Bottom Microplate, Thermo Fisher Scientific, Waltham, MA, USA) and incubated at 37 °C in a humidified atmosphere with 5% (v/v) CO2, to allow spheroids formation and growth.[60],[105] To perform the cell viability study, two methods were used: the MTS assay and the CellTox assay.\nFor MTS assay, HCT116DoxR spheroids grown for 6 to 8 days were used. […] The spheroids were further incubated for 4 h and subsequently transferred the medium to a 96-well flat-bottom plate for analysis using the Tecan Infinite M200 microplate reader (Tecan, Männedorf, Switzerland)."}, "HCT116-DoxR cells [1]": {"system": "HCT116-DoxR cells", "assay": "Mitochondrial membrane potential (JC-1, flow cytometry)", "type": "cell-based, human", "settings": "48 h; complexes at IC50, Dox 6 μM, Cis 5 μM; normalized to DMSO", "excerpt": "Changes in membrane potential can be measured and represent an essential parameter, indicating the functional state of the mitochondria. For this analysis, the lipophilic cationic probe 5,5′,6,6′-tetrachloro-1,1′,3,3′-tetraethylbenzimidazolylcarbocyanine iodide (JC-1) was used, allowing the evaluation of depolarization or hyperpolarization of the mitochondrial membrane.[72] In healthy cells, JC-1 accumulates inside the electronegative mitochondria as aggregates (red fluorescence) when the membrane potential is positively charged (hyperpolarized).[71] However, when depolarization of the mitochondrial membrane potential occurs, the JC-1 probe will accumulate outside of the mitochondria in its monomeric form (green fluorescence), therefore causing a decrease in the ratio of JC-1 aggregate/monomer fluorescence intensity.[61],[71] […] Subsequently, the cells were stained with the JC-1 probe and subjected to flow cytometry analysis to confirm potential alterations in the mitochondrial membrane potential induced by the complexes. […]\nThe mitochondrial membrane potential (ΔΨM) was evaluated by using the JC-1 Mitochondrial Membrane Potential Assay Kit (Abnova Corporation, Walnut, California, USA). […] The samples were then analyzed in the Attune Acoustic Focusing Flow Cytometer (Life Technologies, Carlsbad, CA, USA) and results were processed with Attune Cytometric software."}, "[2]": {"system": "BAX and BCL-2 proteins in HCT116-DoxR cells", "assay": "BAX and BCL-2 protein expression by Western Blot", "type": "cell-based, human", "settings": "48 h at IC50; normalized to 0.1% DMSO control and β-actin", "description": "0.1% DMSO was used as a negative control and β-actin protein was used for the normalization of the total protein quantity.\nHCT116-DoxR cells were seeded in a 25 cm^2 T-flask at a density of 2 × 10^6 cells/T-flask. […] Cells were incubated for 48 h and later were washed and collected using cold PBS 1× and a cell scraper. […]\nAfter the storage period, the samples were submitted 5 ultrasound (Elma sonicator, D-78224 Singen/Htw, Germany) cycles on ice (2 min and 30 s on ultrasound followed by 1 min period on ice) and then centrifuged at 10,000 × g for 5 min. The supernatant was transferred to a 1.5 mL Eppendorf tube, and the total protein extracted was quantified with Pierce 660 nm Protein Assay kit (ThermoFisher Scientific, MA, USA).\nIn the SDS-PAGE analysis of BAX and BCL-2 proteins, 20 μg of protein was applied into a 10% polyacrylamide gel as well as NZYColour protein marker II and transferred to a 0.45 μm polyvinylidene fluoride (PVDF) membrane (GE Healthcare Life Sciences, Germany). […] Protein quantification was done by densitometry with ImageJ software."}, "HCT116-DoxR cells [3]": {"system": "HCT116-DoxR cells", "assay": "Cellular senescence (beta-galactosidase, flow cytometry)", "type": "cell-based, human", "settings": "48 h at IC50, vs 0.1% DMSO", "description": "The percentage of senescent cells was assessed using the Senescence Assay Kit (Abcam), enabling the quantification of beta-galactosidase activity through flow cytometry. […] A 0.1% (v/v) DMSO solution served as vehicle control, and Dox and Cis were used as positive controls.\nIn this assay, a senescence assay kit (Beta Galactosidase, Fluorescence) (ab228562; Abcam, UK) was used. HCT116-DoxR cells were seeded in 24-well plates at a density of 5 × 10^5 cells/well and incubated for 24 h, at the conditions mentioned before. […] Additionally, 0.1% (v/v) DMSO was used as a vehicle control, and 6 μM Dox and 5 μM Cis were used as positive controls. At the end of the incubation period, the medium was removed, and 500 μL of DMEM with 1.5 μL of Senescence dye was added to each well. The plates were incubated for an additional 1–2 h at 37 °C. Subsequently, the well contents were removed, and the cells were washed twice with Wash Buffer (provided by the kit). The cells were trypsinized with TrypLE Express and then centrifuged for 5 min at 500 × g. After centrifugation, the cells were washed with the wash buffer, centrifuged, and resuspended again in 500 μL of Wash Buffer. The samples were subsequently analyzed by an Attune acoustic focusing flow cytometer (Life Technologies, Carlsbad, USA), and the results were analyzed by the respective software (Attune Cytometric software)."}, "pUC18 plasmid DNA (pDNA)": {"system": "pUC18 plasmid DNA (pDNA)", "assay": "Plasmid DNA interaction and cleavage (gel electrophoresis)", "settings": "24 h; for pDNA cleavage / isoform change: 100 ng pUC18, 5–100 μM complex, 37 °C; for pDNA cleavage in presence of NaN3 scavenger: 50 μM complex + 50 μM NaN3, 37 °C; for pDNA cleavage in presence of H2O2: 50 μM complex + 100 μM H2O2, 37 °C", "quoted_text": "The procedure involved exposing 100 ng of pDNA (pUC18) to increasing concentrations of complexes Cu1a and Cu1b (5, 25, 50, 75, and 100 μM), which were incubated at 37 °C for 24 h.\nThe sodium azide (NaN3) scavenger, capable of quenching singlet oxygen (^−1O2), was used for this purpose.[93] Additionally, hydrogen peroxide (H2O2) was employed as a well-known positive control for DNA cleavage through oxidative mechanisms in the presence of ROS.[71]\nExperiments were conducted with 100 ng of pUC18 DNA incubated with increasing concentrations of Cu1a and Cu1b complexes (5, 25, 50, 75, and 100 μM) or in their absence (pUC18 only or with 0.1% DMSO (v/v), both negative controls). For this assay, positive control was included, containing pUC18 DNA (100 ng) previously incubated with the HindIII enzyme to linearize the plasmid in the last 2 h of incubation. […] Electrophoresis was performed in 0.8% (w/v) agarose gel (NZYtech) in TAE 1× buffer at a constant voltage of 70 V for 80 min. The electrophoresis gel image was acquired using the Gel Doc EZ Imager (Bio-Rad), and band quantification was performed using ImageJ software.\nThe pDNA (100 ng) was exposed to reactive oxygen species (ROS) scavenging agents, namely, sodium azide (NaN3) at 50 μM and hydrogen peroxide (H2O2) at 100 μM. […] Controls were also included where 100 ng of pUC18 was exposed to 0.1% (v/v) DMSO, and the activity of the HindIII restriction enzyme (linearized plasmid control) for 24 h. All the samples were adjusted to a final volume of 20 μL and incubated for 24 hs at 37 °C. […] The electrophoresis gel image was acquired in Gel Doc EZ Imager (Bio-Rad) and band quantification was performed using ImageJ software."}},
  "data": [
    {"smiles": "[Cl][Cu-3]12([Cl])[n+]3ccccc3-c3cc(-c4cccc5ccccc45)cc([n+]31)-c1cccc[n+]12", "note": "[Cu1a]", "values": [
      {"measurement": "IC50", "setting": "HCT116-DoxR 3D spheroids", "value": "10.1 ± 0.22", "unit": "µM"},
      {"measurement": "JC-1 red/green fluorescence ratio (aggregate/monomer)", "setting": "HCT116-DoxR cells [1]", "value": "approximately 0.79"},
      {"measurement": "BAX/BCL-2 ratio higher than control", "setting": "[2]", "value": 1.80, "unit": "×"},
      {"measurement": "senescent cells", "setting": "HCT116-DoxR cells [3]", "value": "increase in the percentage of senescent cells"},
      {"measurement": "pDNA cleavage / isoform change", "setting": "pUC18 plasmid DNA (pDNA)", "value": "an increase in the circular form (N) was observed compared to negative control with the simultaneous decrease of the supercoiled isoform"},
      {"measurement": "pDNA cleavage in presence of NaN3 scavenger", "setting": "pUC18 plasmid DNA (pDNA)", "value": "an increase in the supercoiled isoform and a reduction in the nicked isoform"},
      {"measurement": "pDNA cleavage in presence of H2O2", "setting": "pUC18 plasmid DNA (pDNA)", "value": "pDNA cleavage increased compared to H2O2 alone"}
    ]},
    {"smiles": "[Cl][Cu-3]12([Cl])[n+]3ccccc3-c3cc(-c4ccc5ccccc5c4)cc([n+]31)-c1cccc[n+]12", "note": "[Cu1b]", "values": [
      {"measurement": "IC50", "setting": "HCT116-DoxR 3D spheroids", "value": "33.9 ± 0.4", "unit": "µM"},
      {"measurement": "JC-1 red/green fluorescence ratio (aggregate/monomer)", "setting": "HCT116-DoxR cells [1]", "value": 0.88},
      {"measurement": "BAX/BCL-2 ratio higher than control", "setting": "[2]", "value": 1.65, "unit": "×"},
      {"measurement": "senescent cells", "setting": "HCT116-DoxR cells [3]", "value": "highest quantity of cells in senescence"},
      {"measurement": "pDNA cleavage / isoform change", "setting": "pUC18 plasmid DNA (pDNA)", "value": "a decrease in supercoiled forms and an increase in the intensity of the circular isoform at concentrations of 25 and 50 μM"},
      {"measurement": "pDNA cleavage in presence of NaN3 scavenger", "setting": "pUC18 plasmid DNA (pDNA)", "value": "an increase in the supercoiled isoform and a decrease in the nicked isoform"},
      {"measurement": "pDNA cleavage in presence of H2O2", "setting": "pUC18 plasmid DNA (pDNA)", "value": "a complete disappearance of pDNA isoforms is observed"}
    ]}
  ]
}
